Converted amounts (≈) assume the structure as drawn. Where two headings read alike, the source gives them in different places.
Experiments:
[1] = tested on: E. coli strains (W3110, UTI89, CFT073, KTE181); experiment: Rapid SYBR Green/PI antibiotic susceptibility test; assay type: cell-based, Escherichia coli; settings: for percent killed, sensitive strain W3110: ampicillin 100 μg/mL, others 25 μg/mL; for percent killed, resistant strain KTE181: ampicillin 100, trimethoprim 25, streptomycin 25 μg/mL; for cut-off (averaged proportion of killed cells) for resistant strains / cut-off (averaged proportion of killed cells) for susceptible strains: ampicillin, trimethoprim 5 μg/mL
[2] = tested on: stationary phase B. burgdorferi persisters (strain B31); experiment: SYBR Green I/PI viability assay (plate reader), FDA-approved drug library screen; settings: for Ratio of Green/Red fluorescence, Primary screening / Ratio of Green/Red fluorescence, Rescreening (first column) / Ratio of Green/Red fluorescence, Rescreening (second column): 50 μM, 7 days, stationary phase; for viability at 50 µM: Borreliella burgdorferi, 168 h, read-out: Residual viable cells (regression equation, SYBR Green I/PI assay)
[3] = tested on: log phase and stationary phase B. burgdorferi culture; experiment: Antibiotic exposure assay, SYBR Green I/PI (drugs alone and combinations); settings: for viability at 10 µg/mL: Borreliella burgdorferi, 168 h
Description: (§1) To qualitatively determine the effect of antibiotics, 10 μL of each compound from the pre-diluted plate or pre-diluted stock was added to stationary phase B. burgdorferi culture in the 96-well plate. The final volume per well was adjusted to 100 μL at a concentration of 10 μg/mL for each antibiotic. Plates were sealed and placed in a 33° C. incubator for 7 days. The SYBR Green I/PI viability assay was used to assess the live and dead cells after antibiotic exposure as described (Feng, Wang, Shi, et al., 2014). Briefly, 10 μL of SYBR Green I (10,000×stock, Invitrogen) was mixed with 30 μL propidium iodide (PI, 20 mM) into 1.0 mL of sterile dH2O. Then, 10 μL of staining mixture was added to each well and mixed thoroughly. The plates were incubated at room temperature in the dark for 15 minutes followed by plate reading at excitation wavelength at 485 nm and the fluorescence intensity at 535 nm (green emission) and 635 nm (red emission) in microplate reader (HTS 7000 plus Bio Assay Reader, PerkinElmer Inc., USA). With least-square fitting analysis, the regression equation and regression curve of the relationship between percentage of live bacteria and green/red fluorescence ratios was obtained. The regression equation was used to calculate the percentage of live cells in each well of the 96-well plate.
To qualitatively determine the effect of antibiotics, 10 μL of each compound (final concentration 50 μM) from the pre-diluted plate or pre-diluted stock was added to round body form or stationary phase B. burgdorferi culture in the 96-well plate. The final volume per well was adjusted to 100 μL. Plates were sealed and placed in a 33° C. incubator for 7 days. The SYBR Green I/PI viability assay was used to assess the live and dead cells after antibiotic exposure as described (Feng, Wang, Shi, et al., 2014). Briefly, 10 μL of SYBR Green I (10,000×stock, Invitrogen) was mixed with 30 μL propidium iodide (PI, 20 mM, Sigma-Aldrich) into 1.0 mL of sterile dH2O. Then, 10 μL staining mixture was added to each well and mixed thoroughly. The plates were incubated at room temperature in the dark for 15 minutes followed by plate reading at excitation wavelength at 485 nm and the fluorescence intensity at 535 nm (green emission) and 635 nm (red emission) in microplate reader (HTS 7000 plus Bio Assay Reader, PerkinElmer Inc., USA). With least-square fitting analysis, the regression equation and regression curve of the relationship between percentage of live and dead bacteria as shown in green/red fluorescence ratios was obtained. The regression equation was used to calculate the percentage of live cells in each well of the 96-well plate.
Round body form and ten day old stationary phase (in brackets) B. burgdorferi culture was treated with 10 μg/mL drugs or their combinations for 7 days. Residual viable B. burgdorferi was calculated according to the regression equation and ratio of Green/Red fluorescence obtained by SYBR Green I/PI assay as described (Feng, Wang, Shi, et al., 2014). Direct microscopy counting was employed to rectify the results of the SYBR Green I/PI assay. […] Abbreviation: Dox, doxcycline; CefP, cefoperazone; DAP, daptomycin; CefM, cefmetazole; Scp, sulfachlorpyridazine; Art, artemisinin; Nft, nitrofurantoin.

[4] = tested on: stationary phase B. burgdorferi persisters (strain B31); experiment: epifluorescence microscope counting after SYBR Green I/PI staining, FDA drug screen; settings: Borreliella burgdorferi, 168 h, read-out: Residual viable cells (epifluorescence microscope counting)
[5] = tested on: B. burgdorferi (growing, strain B31); settings: actively growing B. burgdorferi; Feng, Wang, Shi, et al., 2014; cited from earlier work
[6] = tested on: round body form of B. burgdorferi; experiment: SYBR Green I/PI assay on amoxicillin-induced round body form; settings: for viability at 50 µM: Borreliella burgdorferi, 168 h, read-out: Residual viable cells (SYBR Green I/PI assay)
[7] = tested on: B. burgdorferi (growing, strain B31); experiment: MIC determination, standard microdilution method; assay type: cell-based, Borrelia burgdorferi; settings: for sensitivity of log phase / multiplying B. burgdorferi (words, FIG. 12): MIC test
[8] = tested on: round body form of B. burgdorferi; experiment: Subculture test of drug-treated round body form
Description: For induction of round body form of B. burgdorferi, B. burgdorferi spirochetes (1×10^5 spirochetes/mL) were cultured in BKS-H medium for 6 days without shaking. After the 6-day incubation, amoxicillin at a final concentration of 50 μg/mL was added to the culture for round body form induction. After 72 h induction at 33° C., the round body forms of B. burgdorferi were examined by the microscopy. The round body cells (100 μL) were transferred to 96-well tissue culture microplates for evaluation of the effects of antibiotic treatment.

[9] = tested on: B. burgdorferi log and stationary phase cultures; experiment: epi-fluorescence microscope counting after antibiotic exposure (persister frequency, planktonic forms); assay type: cell-based, Borrelia burgdorferi; settings: 10-day-old stationary phase culture, 10 μg/mL, 7 days, FIG. 17A
Description: Specimens were examined on a Nikon Eclipse E800 microscope equipped with differential interference contrast (DIC) and epi-fluorescence illumination, and recorded with a Spot slider color camera. Cell proliferation assays were performed by direct counting using a bacterial counting chamber (Hausser Scientific Partnership) and DIC microscopy. SYBR Green I/PI assay was performed to assess the viability of B. burgdorferi. The ratio of live (green) and dead (red) B. burgdorferi was calculated by counting these cells using a bacterial counting chamber and epi-fluorescence microscopy. The three representative images of every sample were captured for quantitative analysis. Image Pro-Plus software was applied for measuring the biomass (fluorescence intensity) of different forms (spirochetes, round body, and microcolony) of B. burgdorferi as previously described (Shopov and Williams, 2000).
as §1
Therefore, the frequency of B. burgdorferi persisters in log phase and stationary phase cultures was assessed using the SYBR Green I/PI viability assay after exposure of the cultures to antimicrobials. E. coli culture was used as a control after exposure to antibiotics to validate the SYBR Green I/PI viability assay for persister frequency assessment.

[10] = tested on: stationary phase B. burgdorferi; experiment: Subculture test of drug-treated stationary phase B. burgdorferi; assay type: cell-based, Borrelia burgdorferi
Description: Seven-day-old B. burgdorferi culture (1×10^7 spirochetes/mL) (500 μL) was treated with drugs or drug combinations in Eppendorf tubes. After incubation at 33° C. for 7 days without shaking, the cells were collected by centrifugation and rinsed with 1 mL fresh BSK-H medium followed by resuspension in 500 μL fresh BSK-H medium without antibiotics. Then 50 μL of cell suspension was transferred to 1 mL fresh BSK-H medium for subculture at 33° C. for 2 weeks. Cell proliferation was assessed using SYBR Green I/PI assay and bacterial counting chamber (Hausser Scientific Partnership) by microscopy as described above.

[11] = read-out: Live Cell % (residual viable B. burgdorferi), ten-day-old stationary phase culture enriched with micro-colonies, 10 μg/mL each drug, 7 days
[12] = read-out: Live Cell % (residual viable B. burgdorferi)
[13] = 10 μg/mL drugs or combinations, 7 days
[14] = 10 μg/mL, 7 days treatment, then subculture

## COc1cc(Cc2cnc(N)nc2N)cc(OC)c1OC [trimethoprim]
[1]; 30 minutes
  percent killed, sensitive strain W3110: 47%
  percent killed, resistant strain KTE181: 1%
[1]; 30 minutes, trimethoprim 25 μg/mL
  percent killed, resistant strain CFT073: 22%
[1]; streptomycin 100 μg/mL
  cut-off (averaged proportion of killed cells) for resistant strains: -0.2
  cut-off (averaged proportion of killed cells) for susceptible strains: −0.5

## CC[C@H]1OC(=O)[C@H](C)[C@@H](O[C@H]2C[C@@](C)(OC)[C@@H](O)[C@H](C)O2)[C@H](C)[C@@H](O[C@@H]2O[C@H](C)C[C@H](N(C)C)[C@H]2O)[C@](C)(OC)C[C@@H](C)C(=O)[C@H](C)[C@@H](O)[C@]1(C)O [Clarithromycin]
[2]
  Ratio of Green/Red fluorescence, Primary screening: 7.70
  Ratio of Green/Red fluorescence, Rescreening (first column): 7.36
  Ratio of Green/Red fluorescence, Rescreening (second column): 7.59
  viability at 50 µM: 65%
[3]; [11]
  viability at 10 µg/mL: 63%
[4]
  viability at 50 µM: 70%

## CN(C)c1cc(NC(=O)CNC(C)(C)C)c(O)c2c1C[C@H]1C[C@H]3[C@H](N(C)C)C(O)=C(C(N)=O)C(=O)[C@@]3(O)C(O)=C1C2=O [Tigecycline]
[2]
  Ratio of Green/Red fluorescence, Primary screening: 6.98
  Ratio of Green/Red fluorescence, Rescreening (first column): 7.06
  Ratio of Green/Red fluorescence, Rescreening (second column): 6.96
  viability at 50 µM: 51%
[3]; [12]
  viability at 10 µg/mL: 67%
[4]
  viability at 50 µM: 58%

## [H]/N=C(/N)N[C@H]1[C@H](O)[C@@H](O)[C@H](O[C@@H]2O[C@@H](C)[C@](O)(C=O)[C@H]2O[C@@H]2O[C@@H](CO)[C@H](O)[C@@H](O)[C@@H]2NC)[C@@H](N/C(N)=N\[H])[C@@H]1O [Streptomycin]
[1]; 30 minutes
  percent killed, sensitive strain W3110: 29%
  percent killed, resistant strain KTE181: 0%
[1]; streptomycin 100 μg/mL
  cut-off (averaged proportion of killed cells) for resistant strains: −0.1
  cut-off (averaged proportion of killed cells) for susceptible strains: −0.6
  cut-off (averaged proportion of killed cells) for intermediate resistance: −0.5
[2]
  Ratio of Green/Red fluorescence, Primary screening: 6.72
  Ratio of Green/Red fluorescence, Rescreening (first column): 6.93
  Ratio of Green/Red fluorescence, Rescreening (second column): 6.76
  viability at 50 µM: 45%

## CC(C)/N=c1\cc2n(-c3ccc(Cl)cc3)c3ccccc3nc-2cc1Nc1ccc(Cl)cc1 [Clofazimine]
[2]
  Ratio of Green/Red fluorescence, Primary screening: 6.56
  Ratio of Green/Red fluorescence, Rescreening (first column): 6.23
  Ratio of Green/Red fluorescence, Rescreening (second column): 6.02
  viability at 50 µM: 32%
[3]; [12]
  viability at 10 µg/mL: 73%
[5]
  MIC (previous study): 6.25 µg/mL (≈ 13.2 µM)
[6]
  viability at 50 µM: 32%
[6]; round body form, 50 μM, 7 days
  Ratios of green/red fluorescence, Primary screening: 6.29
  Ratios of green/red fluorescence, Rescreening (first column): 6.22
  Ratios of green/red fluorescence, Rescreening (second column): 6.24
[7]; Borreliella burgdorferi, growing B. burgdorferi, read-out: MIC
  MIC: 6.25 µg/mL (≈ 13.2 µM)
[7]
  sensitivity of log phase / multiplying B. burgdorferi (words, FIG. 12): less potent
[4]
  viability at 50 µM: 45%

## CN[C@H](CC(C)C)C(=O)N[C@H]1C(=O)N[C@@H](CC(N)=O)C(=O)N[C@H]2C(=O)N[C@H]3C(=O)N[C@H](C(=O)N[C@H](C(=O)O)c4cc(O)cc(O)c4-c4cc3ccc4O)[C@H](O)c3ccc(c(Cl)c3)Oc3cc2cc(c3O[C@@H]2O[C@H](CO)[C@@H](O)[C@H](O)[C@H]2O[C@H]2C[C@](C)(N)[C@H](O)[C@H](C)O2)Oc2ccc(cc2Cl)[C@H]1O [Vancomycin]
[2]
  Ratio of Green/Red fluorescence, Primary screening: 6.65
  Ratio of Green/Red fluorescence, Rescreening (first column): 6.58
  Ratio of Green/Red fluorescence, Rescreening (second column): 6.37
  viability at 50 µM: 38%
[3]; [12]
  viability at 10 µg/mL: 64%
[6]
  viability at 50 µM: 38%
[4]
  viability at 50 µM: 48%

## CCN1CCN(C(=O)N[C@@H](C(=O)N[C@@H]2C(=O)N3C(C(=O)O)=C(CSc4nnnn4C)CS[C@H]23)c2ccc(O)cc2)C(=O)C1=O [Cefoperazone]
[2]
  Ratio of Green/Red fluorescence, Primary screening: 6.54
  Ratio of Green/Red fluorescence, Rescreening (first column): 6.32
  Ratio of Green/Red fluorescence, Rescreening (second column): 6.23
  viability at 50 µM: 34%
[3]; [13]
  Live cell %, ten day old stationary phase culture (in brackets): 64%
[3]; [11]
  viability at 10 µg/mL: 64%
[8]; [14]
  Spirochetes number After 10 day subculture: 9 × 10^5
  Spirochetes number After 20 day subculture: 4 × 10^6
[8]; Borreliella burgdorferi, 168 h, read-out: Residual viable cells
  viability at 10 µg/mL: 33%
[6]; [13]
  Live cell %, round body form: 30%
[9]
  planktonic form cells remaining green (live): 52%
[7]
  sensitivity of log phase / multiplying B. burgdorferi (words, FIG. 12): very sensitive
[4]
  viability at 50 µM: 37%
[10]; 10 μg/mL, 7 days
  G/R ratio immediately after treatment: 6.60
[10]; [14]
  G/R ratio after 7 day subculture: 6.13
  G/R ratio after 15 day subculture: 6.95
  Spirochetes after 7 day subculture (microscope counting): 1.5 × 10^6
  Spirochetes after 15 day subculture (microscope counting): 5 × 10^6
[10]; Borreliella burgdorferi, 168 h, read-out: Residual viable cells (epifluorescence microscope counting)
  viability at 10 µg/mL: 61%
